Common to all, as to format: functional
Experiment [1] has as its system Staphylococcus aureus. Briefly: Antimicrobial activity against Staphylococcus aureus assessed as reduction of microbial growth incubated overnight.
Experiment [2] has as its system Escherichia coli. Briefly: Antimicrobial activity against Escherichia coli assessed as reduction of microbial growth incubated overnight.
Experiment [3] concerns Pseudomonas aeruginosa. As to the kind of experiment: Antimicrobial activity against Pseudomonas aeruginosa assessed as reduction of microbial growth incubated overnight.
Experiment [4] relates to Staphylococcus aureus. Briefly: Antimicrobial activity against Staphylococcus aureus assessed as reduction of microbial growth incubated for 6 to 9 hr by macrodilution method. The settings on record: time 6-9 hrs.
For experiment [5], the system named is Pseudomonas aeruginosa. As to the kind of experiment: Antimicrobial activity against Pseudomonas aeruginosa assessed as reduction of microbial growth incubated for 6 to 9 hr by macrodilution method. The settings on record: time 6-9 hrs.
The subject of experiment [6] is Escherichia coli. Briefly: Antimicrobial activity against Escherichia coli assessed as reduction of microbial growth incubated for 6 to 9 hr by macrodilution method. The settings on record: time 6-9 hrs.
Experiment [7] concerns Staphylococcus aureus. Briefly: Antimicrobial activity against Staphylococcus aureus assessed as reduction of microbial growth.
In experiment [8] the test system is Escherichia coli. As to the kind of experiment: Antimicrobial activity against Escherichia coli assessed as reduction of microbial growth.
Experiment [9] has as its system Pseudomonas aeruginosa. As to the kind of experiment: Antimicrobial activity against Pseudomonas aeruginosa assessed as reduction of microbial growth.
The subject of experiment [10] is Pseudomonas aeruginosa. Briefly: Antimicrobial activity against Pseudomonas aeruginosa assessed as reduction of microbial growth incubated for 18 to 24 hrs by microdilution method. The settings on record: time 18-24 hrs. (In general: Broth dilution looks for growth in wells or tubes with falling amounts of substance.)
In experiment [11] the test system is Staphylococcus aureus. Briefly: Antimicrobial activity against Staphylococcus aureus assessed as reduction of microbial growth incubated for 18 to 24 hrs by microdilution method. The settings on record: time 18-24 hrs.
The subject of experiment [12] is Escherichia coli. As to the kind of experiment: Antimicrobial activity against Escherichia coli assessed as reduction of microbial growth incubated for 18 to 24 hrs by microdilution method. The settings on record: time 18-24 hrs.
The subject of experiment [13] is Staphylococcus aureus. Briefly: Antimicrobial activity against Staphylococcus aureus.
Experiment [14] has as its system Pseudomonas aeruginosa. As to the kind of experiment: Antimicrobial activity against Pseudomonas aeruginosa.
The subject of experiment [15] is Escherichia coli. Briefly: Antimicrobial activity against Escherichia coli.

Active and inactive are the calls of the source. No cut-off for these calls is given here. Non-standard residues stand in square brackets, D forms with d. Residues, ends and D or L forms follow the SMILES beside them. βAla = NCCC(=O)O

With `CC[C@H](C)[C@H](NC(=O)CNC(=O)[C@@H]1CCCN1C(=O)CNC(=O)[C@H](C)NC(=O)[C@H](CCCCN)NC(=O)[C@@H](NC(=O)[C@@H](NC(=O)CNC(=O)[C@H](CC(=O)O)NC(=O)[C@H](CCCNC(=N)N)NC(=O)[C@@H](NC(=O)[C@H](CC(N)=O)NC(=O)[C@H](CCC(N)=O)NC(=O)CNC(=O)[C@@H](NC(=O)[C@H](CCCCN)NC(=O)[C@H](CCC(=O)O)NC(=O)[C@@H](NC(=O)[C@H](CCCCN)NC(=O)[C@H](CCCCN)NC(=O)[C@H](Cc1ccccc1)NC(=O)[C@H](CC(C)C)NC(=O)[C@H](CCCCN)NC(=O)[C@H](Cc1c[nH]c2ccccc12)NC(=O)[C@@H](N)CCCCN)[C@@H](C)CC)C(C)C)[C@@H](C)CC)[C@@H](C)CC)[C@@H](C)CC)C(=O)NCC(=O)N[C@@H](C)C(=O)N[C@H](C(=O)N[C@@H](CC(C)C)C(=O)N[C@@H](CCCCN)C(=O)N[C@H](C(=O)N[C@@H](CC(C)C)C(=O)N[C@H](C(=O)N[C@H](C(=O)NCC(=O)N[C@@H](CC(C)C)C(=O)O)[C@@H](C)O)[C@@H](C)O)C(C)C)C(C)C`, the LD with Staphylococcus aureus [1] was found to be 6 µM; with Escherichia coli [2], 0.3 µM; in the experiment with Pseudomonas aeruginosa [3], 1 µM.
The matching figures for `CC[C@@H](C)[C@H](NC(=O)[C@@H](NC(=O)CNC(=O)[C@H](CC(=O)O)NC(=O)[C@H](CCCNC(=N)N)NC(=O)[C@@H](NC(=O)[C@H](CC(N)=O)NC(=O)[C@H](CCC(N)=O)NC(=O)CNC(=O)[C@@H](NC(=O)[C@H](CCCCN)NC(=O)[C@H](CCC(=O)O)NC(=O)[C@@H](NC(=O)[C@H](CCCCN)NC(=O)[C@H](CCCCN)NC(=O)[C@H](Cc1ccccc1)NC(=O)[C@H](CC(C)C)NC(=O)[C@H](CCCCN)NC(=O)[C@H](Cc1c[nH]c2ccccc12)NC(=O)[C@@H](N)CCCCN)[C@@H](C)CC)C(C)C)[C@@H](C)CC)[C@@H](C)CC)C(=O)N[C@@H](CCCCN)C(=O)N[C@@H](C)C(=O)NCC(=O)N1CCC[C@H]1C(=O)N[C@@H](C)C(=O)N[C@H](C(=O)N[C@@H](C)C(=O)N[C@H](C(=O)N[C@H](C(=O)NCC(=O)N[C@@H](CCC(N)=O)C(=O)N[C@@H](C)C(=O)N[C@H](C(=O)N[C@@H](CCC(N)=O)C(=O)N[C@H](C(=O)N[C@@H](C)C(=O)N[C@@H](CCCCN)C(=O)O)[C@@H](C)CC)[C@@H](C)O)C(C)C)C(C)C)C(C)C`: more than 200 µM, 0.2 µM and 2 µM.
Regarding `CC[C@H](C)[C@H](NC(=O)CN)C(=O)NCC(=O)N[C@@H](C)C(=O)N[C@H](C(=O)N[C@@H](CC(C)C)C(=O)N[C@@H](CCCCN)C(=O)N[C@H](C(=O)N[C@@H](CC(C)C)C(=O)N[C@H](C(=O)N[C@H](C(=O)NCC(=O)N[C@@H](CC(C)C)C(=O)N[C@@H](CCCCN)C(=O)N[C@@H](Cc1c[nH]c2ccccc12)C(=O)N[C@@H](CCCCN)C(=O)N[C@@H](CC(C)C)C(=O)N[C@@H](Cc1ccccc1)C(=O)N[C@@H](CCCCN)C(=O)N[C@@H](CCCCN)C(=O)N[C@H](C(=O)N[C@@H](CCC(=O)O)C(=O)N[C@@H](CCCCN)C(=O)N[C@H](C(=O)NCC(=O)N[C@@H](CCC(N)=O)C(=O)O)C(C)C)[C@@H](C)CC)[C@@H](C)O)[C@@H](C)O)C(C)C)C(C)C`, the LD in the experiment on Staphylococcus aureus [1] was found to be 5 µM; with Escherichia coli [2], 1 µM; in the experiment on Pseudomonas aeruginosa [3], 5 µM.
Turning to `CC[C@H](C)[C@H](NC(=O)[C@H](CCCCN)NC(=O)[C@H](CCCCN)NC(=O)[C@H](Cc1ccccc1)NC(=O)[C@H](CC(C)C)NC(=O)[C@H](CCCCN)NC(=O)[C@H](Cc1c[nH]c2ccccc12)NC(=O)[C@@H](N)CCCCN)C(=O)N[C@@H](CCC(=O)O)C(=O)N[C@@H](CCCCN)C(=O)N[C@H](C(=O)NCC(=O)N[C@@H](CCC(N)=O)C(=O)NCC(=O)N[C@@H](C(=O)NCC(=O)N[C@@H](C)C(=O)N[C@H](C(=O)N[C@@H](CC(C)C)C(=O)N[C@@H](CCCCN)C(=O)N[C@H](C(=O)N[C@@H](CC(C)C)C(=O)N[C@H](C(=O)N[C@H](C(=O)NCC(=O)N[C@@H](CC(C)C)C(=O)O)[C@@H](C)O)[C@@H](C)O)C(C)C)C(C)C)[C@@H](C)CC)C(C)C`, the LD turned out to be 2 µM with Staphylococcus aureus [1], 0.5 µM with Escherichia coli [2] and 1 µM in the experiment on Pseudomonas aeruginosa [3].
As for `CC[C@H](C)[C@H](NC(=O)CN)C(=O)NCC(=O)N[C@@H](CCCCN)C(=O)N[C@@H](Cc1ccccc1)C(=O)N[C@@H](CC(C)C)C(=O)N[C@@H](Cc1c[nH]cn1)C(=O)N[C@@H](CO)C(=O)N[C@H](C)C(=O)N[C@@H](CCCCN)C(=O)N[C@@H](CCCCN)C(=O)N[C@@H](Cc1ccccc1)C(=O)N[C@H](C)C(=O)N[C@@H](CCCCN)C(=O)N[C@@H](C)C(=O)N[C@@H](Cc1ccccc1)C(=O)N[C@H](C(=O)N[C@H](C)C(=O)N[C@@H](CCC(=O)O)C(=O)N[C@H](C(=O)N[C@@H](CCSC)C(=O)N[C@@H](CC(N)=O)C(=O)N[C@@H](CO)C(N)=O)[C@@H](C)CC)C(C)C` (H-GIGKFLHS[dA]KKF[dA]KAFV[dA]EIMNS-NH2), the MIC with Staphylococcus aureus [4], with Pseudomonas aeruginosa [5] and in the experiment on Escherichia coli [6] was more than 100 µg/mL throughout.
On to `CC[C@H](C)[C@H](NC(=O)CNC(=O)CCN)C(=O)NCC(=O)N[C@@H](CCCCN)C(=O)N[C@@H](Cc1ccccc1)C(=O)N[C@@H](CC(C)C)C(=O)N[C@@H](Cc1c[nH]cn1)C(=O)N[C@@H](C)C(=O)N[C@@H](C)C(=O)N[C@@H](CCCCN)C(=O)N[C@@H](CCCCN)C(=O)N[C@@H](Cc1ccccc1)C(=O)N[C@@H](C)C(=O)N[C@@H](CCCCN)C(=O)N[C@@H](C)C(=O)N[C@@H](Cc1ccccc1)C(=O)N[C@H](C(=O)N[C@@H](C)C(=O)N[C@@H](CCC(=O)O)C(=O)N[C@H](C(=O)N[C@@H](CCSC)C(=O)N[C@@H](CC(N)=O)C(=O)N[C@@H](CO)C(N)=O)[C@@H](C)CC)C(C)C` (H-[βAla]GIGKFLHAAKKFAKAFVAEIMNS-NH2), for which the minimum inhibitory concentration (MIC) in the experiment on Staphylococcus aureus [4] is 5 µg/mL; with Pseudomonas aeruginosa [5], 50 µg/mL; with Escherichia coli [6] it was 5 µg/mL.
Regarding `CC[C@H](C)[C@H](NC(=O)CN)C(=O)NCC(=O)N[C@@H](C)C(=O)N[C@H](C(=O)N[C@@H](CC(C)C)C(=O)N[C@@H](CCCCN)C(=O)N[C@H](C(=O)N[C@@H](CC(C)C)C(=O)N[C@H](C(=O)N[C@H](C(=O)NCC(=O)N[C@@H](CC(C)C)C(=O)N1CCC[C@H]1C(=O)N[C@@H](C)C(=O)N[C@@H](CC(C)C)C(=O)N[C@H](C(=O)N[C@@H](CO)C(=O)N[C@@H](Cc1c[nH]c2ccccc12)C(=O)N[C@H](C(=O)N[C@@H](CCCCN)C(=O)N[C@@H](CCCNC(=N)N)C(=O)N[C@@H](CCCCN)C(=O)N[C@@H](CCCNC(=N)N)C(=O)N[C@@H](CCC(N)=O)C(=O)N[C@@H](CCC(N)=O)C(N)=O)[C@@H](C)CC)[C@@H](C)CC)[C@@H](C)O)[C@@H](C)O)C(C)C)C(C)C` [MELITTIN], the results for the LD with Staphylococcus aureus [1], with Escherichia coli [2] and in the experiment with Pseudomonas aeruginosa [3] were 0.2 µM, 0.8 µM and 3 µM, respectively.
For Ac-GIGKFLHAAKKFAKAFVAEIMNS-NH2, the results for the MIC in the experiment on Staphylococcus aureus [4], in the experiment on Pseudomonas aeruginosa [5] and with Escherichia coli [6] were 25 µg/mL, more than 100 µg/mL and 25 µg/mL, respectively.
On to H-FLHSAKKFGKAFVGEIMNS-OH, for which the MIC result with Staphylococcus aureus [7] and in the experiment with Pseudomonas aeruginosa [9] was “inactive” each time. In addition, the minimum inhibitory concentration (MIC) in the experiment with Escherichia coli [8] was 200 µg/mL.
Regarding H-GIGKFLHAAKKFAKAFVAEIMNS-NH2, the minimal inhibitory concentration (MIC) in the experiment with Staphylococcus aureus [4] is 10 µg/mL; with Pseudomonas aeruginosa [5] it was 25 µg/mL; with Escherichia coli [6], 2.5 µg/mL.
With H-GIGKFLHSAKKFGKAFVGEIMNS-NH2, the MIC is more than 256 µg/mL in the experiment with Staphylococcus aureus [7], 128 µg/mL in the experiment with Escherichia coli [8] and 256 µg/mL with Pseudomonas aeruginosa [9].
For the compound “H-GIGKFLHSAKKFGKAFVGEIMNS-OH [MAGAININ 2]”, the MIC result in the experiment on Staphylococcus aureus [7] and with Pseudomonas aeruginosa [9] was “inactive” in each case. Further, the MIC in the experiment on Escherichia coli [8] was 1 µg/mL; in the experiment on Pseudomonas aeruginosa [10] it was 50 µg/mL; in the experiment with Staphylococcus aureus [11] it was not below 100 µg/mL; with Escherichia coli [12], 50 µg/mL.
As to H-GIGKFLHSAKKFGKAFVGEIMNSKKKKKKKKKK-OH, the MIC with Pseudomonas aeruginosa [10] amounted to 3.1 µg/mL; in the experiment on Staphylococcus aureus [11], 3.1 µg/mL; in the experiment with Escherichia coli [12], 50 µg/mL.
Regarding H-KFLHSAKKFGKAFVGEIMNS-OH, the MIC result with Staphylococcus aureus [7] and in the experiment with Pseudomonas aeruginosa [9] was “inactive” throughout. In addition, the MIC with Escherichia coli [8] amounted to 20 µg/mL.
In the case of H-KKKKKKKKKKGIGKFLHSAKKFGKAFVGEIMNS-OH, the values for the minimum inhibitory concentration (MIC) in the experiment with Pseudomonas aeruginosa [10], with Staphylococcus aureus [11] and in the experiment with Escherichia coli [12] were 6.25 µg/mL, 12.5 µg/mL and 6.25 µg/mL, respectively.
Consider H-KWKLFKKGIGAVLKV-OH, for which the LD in the experiment on Staphylococcus aureus [13] was 29 µM; in the experiment on Pseudomonas aeruginosa [14], 15 µM; in the experiment on Escherichia coli [15], 4 µM.
For the compound H-KWKLFKKIGAVLKVL-OH, the LD with Staphylococcus aureus [13] stood at 2 µM; in the experiment on Pseudomonas aeruginosa [14] it was 4 µM; in the experiment with Escherichia coli [15], 1 µM.
With H-KWKLFKKIGIGAVLKVLK-OH, the LD was 7 µM in the experiment with Staphylococcus aureus [13], 3 µM in the experiment on Pseudomonas aeruginosa [14] and 0.5 µM with Escherichia coli [15].
The matching figures for H-KWKLFKKVLKVLTTG-OH: 8 µM, 2 µM and 0.5 µM.
For the compound H-RRRRRRRRRRGIGKFLHSAKKFGKAFVGEIMNS-OH, the results for the MIC in the experiment on Pseudomonas aeruginosa [10], in the experiment with Staphylococcus aureus [11] and in the experiment on Escherichia coli [12] were 6.25 µg/mL, 25 µg/mL and 3.12 µg/mL, respectively.

The MIC is the lowest concentration that inhibits growth of the organism.

These data come from ChEMBL document CHEMBL5321224, “Antimicrobial peptides: Structure, mechanism, and modification” (2023).
